{"source": "patent US20040086901A1", "about": "“Database for analyzing gene function and method of analyzing gene function by dspa” (priority 2000, published 2004)", "assay_type_in_all_cases": "cell-based, mouse", "key": {"[1]": {"test_system": "NIH3T3 cells overexpressing Ha-ras", "experiment": "MTT cell viability, drug sensitivity of Ha-ras overexpressing cells vs parental line", "settings": "Ha-ras high-expressing cells / parental cell line, 3 to 4 days", "how_it_was_run": "(§1)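 Drugs were serially diluted twofold across nine wells. Cells were then added from a suspension of 1×10^5 cells/ml and cultured for 3 to 4 days. After a 4 h MTT incubation at 37 °C and acid-isopropanol solubilisation, formazan was measured at 574 nm and IC40 ratios were derived.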"}, "[2]": {"test_system": "NIH3T3 cells overexpressing erbB2", "experiment": "MTT cell viability, erbB2 overexpressing cells vs parental line", "settings": "erbB2 high-expressing cells / parental cell line, 3 to 4 days", "how_it_was_run": "(§2)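 Stable NIH3T3 transfectants (cDNA in pRc-CMV-type vector, G-418-selected, high expressers picked by Western blot) and parental cells were seeded at 1×10^5 cells/ml into twofold serial drug dilutions and grown 3–4 days. MTT formazan was read at 574/655 nm, and log ratios of IC40 values were derived.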"}, "[3]": {"test_system": "NIH3T3 cells overexpressing Cip-1", "experiment": "MTT cell viability, Cip-1 overexpressing cells vs parental line", "settings": "Cip-1 high-expressing cells / parental cell line, 3 to 4 days", "method": "With regard to the function-known genes, the genes shown in the left column of Table 2 were used. With regard to the drugs, those shown in Table 1 were dissolved in DMSO to an extent of 100-fold of the maximum concentration for the search of the drugs and used. With regard to the cells, incubated NIH3T3 or ras-NIH3T3 cells were used.\nFull-length cDNA of each function-known genes was incorporated into an expression vector (pRc-CMV, etc.) and transfected into NIH3T3 cells by a common method. Transformed cells were isolated using the resistance to G-418 as an index and the expression of the transfected gene in each cell was investigated by Western blotting method to select a highly expressing line.\nCell viabilities were measured according to the following procedures.\n1) From the 2nd to the 11th rows of a 96-well plate were filled with DMEM (50 μl). The 12th row was filled with 100 μl of DMEM.\n2) The 1st row was filled with 98 μl of DMEM.\n3) Drugs (2 μl each) were added into the 1st row.\n4) Continuous double-dilution was conducted from the 1st to the 9th rows. Fifty μl were taken out from the 9th row and discarded. The plate was preserved in a CO2 incubator.\n5) Cells (each high-expressing cells and the parental cell line) were detached from the medium using a trypsin solution, suspended in 10% CS-DMEM and transferred to a test tube and cell numbers (cell/ml) were counted.\n6) The cells were diluted to a concentration of 1×10^5 cells/ml, and 50 μl of the cell suspension were added to the 1st to the 11th rows of the plate followed by gently stirring.\n7) The plate was transferred to the CO2 incubator and incubated for 3 to 4 days.\n8) MTT (5 mg/ml in PBS) (10 μl) was added to the 1st to the 12th rows of the plate and incubated in the CO2 incubator at 37° C. for 4 hours.\n9) A reaction stop solution (0.04N HCl in isopropanol) (150 μl) was added followed by mixing well and being allowed to stand at room temperature for about 2 hours.\n10) Coloration of formazan which was a metabolite of the MTT dye was measured using a microplate reader. The measurement wavelength was 574 nm and the reference wavelength was 655 nm. The 10th and the 11th rows of the plate were 100% controls and the 12th row was a 0% control.\nAs an index for the sensitivity of highly gene-expressing cells and the parental cell line to various drugs, each of the IC40 values thereof was specified and ratios of the IC40 values were calculated. […] After that, logarithmic values of ratios of IC40 values were calculated from each gene."}, "[4]": {"test_system": "NIH3T3 cells overexpressing p16/INK4A", "experiment": "MTT cell viability, p16/INK4A overexpressing cells vs parental line", "settings": "p16/INK4A high-expressing cells / parental cell line, 3 to 4 days", "how_it_was_run": "as §2"}, "[5]": {"test_system": "NIH3T3 cells overexpressing Bax", "experiment": "MTT cell viability, Bax overexpressing cells vs parental line", "settings": "3 to 4 days", "how_it_was_run": "as §1"}, "[6]": {"test_system": "NIH3T3 cells overexpressing CP-antisense", "experiment": "MTT cell viability, CP-antisense cells vs parental line", "settings": "3 to 4 days", "how_it_was_run": "as §2"}, "[7]": {"test_system": "NIH3T3 cells overexpressing DAN", "experiment": "MTT cell viability, DAN overexpressing cells vs parental line", "settings": "DAN high-expressing cells / parental cell line, 3 to 4 days", "how_it_was_run": "as §2"}, "[8]": {"test_system": "NIH3T3 cells overexpressing caspase-3", "experiment": "MTT cell viability, caspase-3 overexpressing cells vs parental line", "settings": "caspase-3 high-expressing cells / parental cell line, 3 to 4 days", "how_it_was_run": "as §1"}, "[9]": {"test_system": "NIH3T3 cells overexpressing PDGF-R-Del", "experiment": "MTT cell viability, PDGF-R-Del overexpressing cells vs parental line", "settings": "PDGF-R-Del high-expressing cells / parental cell line, 3 to 4 days", "how_it_was_run": "as §2"}, "[10]": {"test_system": "NIH3T3 cells overexpressing Gluco-corticoid-R", "experiment": "MTT cell viability, Gluco-corticoid-R overexpressing cells vs parental line", "settings": "Gluco-corticoid-R high-expressing cells / parental cell line, 3 to 4 days", "how_it_was_run": "as §1"}, "[11]": {"test_system": "NIH3T3 cells overexpressing PKCepsilon-KN", "experiment": "MTT cell viability, PKCepsilon-KN overexpressing cells vs parental line", "settings": "3 to 4 days", "how_it_was_run": "as §1"}, "[12]": {"test_system": "NIH3T3 cells, TPA (PKC downreg)", "experiment": "MTT cell viability, TPA (PKC downreg) cells vs parental line", "settings": "3 to 4 days"}, "[13]": {"test_system": "NIH3T3 cells overexpressing p38-DN", "experiment": "MTT cell viability, p38-DN overexpressing cells vs parental line", "settings": "p38-DN high-expressing cells / parental cell line, 3 to 4 days", "how_it_was_run": "as §1"}, "[14]": {"test_system": "NIH3T3 cells overexpressing HSP4O", "experiment": "MTT cell viability, HSP4O overexpressing cells vs parental line", "settings": "HSP4O high-expressing cells / parental cell line, 3 to 4 days", "how_it_was_run": "as §2"}, "[15]": {"test_system": "NIH3T3 cells overexpressing HSP9O", "experiment": "MTT cell viability, HSP9O overexpressing cells vs parental line", "settings": "HSP9O high-expressing cells / parental cell line, 3 to 4 days", "how_it_was_run": "as §2"}, "[16]": {"test_system": "NIH3T3 cells overexpressing HNF3b", "experiment": "MTT cell viability, HNF3b overexpressing cells vs parental line", "settings": "HNF3b high-expressing cells / parental cell line, 3 to 4 days", "how_it_was_run": "as §1"}, "[17]": {"test_system": "NIH3T3 cells overexpressing HNF4", "experiment": "MTT cell viability, HNF4 overexpressing cells vs parental line", "settings": "HNF4 high-expressing cells / parental cell line, 3 to 4 days", "how_it_was_run": "as §1"}, "[18]": {"test_system": "NIH3T3 cells overexpressing coup", "experiment": "MTT cell viability, coup overexpressing cells vs parental line", "settings": "coup high-expressing cells / parental cell line, 3 to 4 days", "how_it_was_run": "as §2"}, "[19]": {"test_system": "NIH3T3 cells overexpressing p33/ING1", "experiment": "MTT cell viability, p33/ING1 overexpressing cells vs parental line", "settings": "p33/ING1 high-expressing cells / parental cell line, 3 to 4 days", "how_it_was_run": "as §2"}, "[20]": {"settings": "Bax (first of two Bax lines) high-expressing cells / parental cell line"}, "[21]": {"settings": "Bax (second of two Bax lines) high-expressing cells / parental cell line"}, "[22]": {"settings": "PKCepsilon-KN (first of two lines) high-expressing cells / parental cell line"}, "[23]": {"settings": "PKCepsilon-KN (second of two lines) high-expressing cells / parental cell line"}}, "data": [{"smiles": "C=C1[C@@H](O)[C@@H]2O[C@]3(CC[C@H](/C=C/[C@@H](C)[C@@H]4CC(C)=C[C@@]5(O[C@H](C[C@@](C)(O)C(=O)O)CC[C@H]5O)O4)O3)CC[C@H]2O[C@@H]1[C@@H](O)C[C@H](C)[C@H]1O[C@@]2(CCCCO2)CC[C@H]1C", "note": "[OA, okadaic acid]", "values": [{"measurement": "logarithmic value of ratio of IC40 values", "setting": "[1]", "result": 0.11}, {"measurement": "logarithmic value of ratio of IC40 values", "setting": "[2]", "result": "−0.19"}, {"measurement": "logarithmic value of ratio of IC40 values", "setting": "[3]", "result": "−0.15"}, {"measurement": "logarithmic value of ratio of IC40 values", "setting": "[4]", "result": 0.06}, {"measurement": "logarithmic value of ratio of IC40 values", "setting": "[5]; [20]", "result": 0.00}, {"measurement": "logarithmic value of ratio of IC40 values", "setting": "[5]; [21]", "result": 0.00}, {"measurement": "logarithmic value of ratio of IC40 values", "setting": "[6]", "result": 0.13}, {"measurement": "logarithmic value of ratio of IC40 values", "setting": "[7]", "result": 0.04}, {"measurement": "logarithmic value of ratio of IC40 values", "setting": "[8]", "result": 0.00}, {"measurement": "logarithmic value of ratio of IC40 values", "setting": "[9]", "result": 0.21}, {"measurement": "logarithmic value of ratio of IC40 values", "setting": "[10]", "result": 0.06}, {"measurement": "logarithmic value of ratio of IC40 values", "setting": "[11]; [22]", "result": 0.00}, {"measurement": "logarithmic value of ratio of IC40 values", "setting": "[11]; [23]", "result": 0.00}, {"measurement": "logarithmic value of ratio of IC40 values", "setting": "[12]", "result": 0.12}, {"measurement": "logarithmic value of ratio of IC40 values", "setting": "[13]", "result": 0.12}, {"measurement": "logarithmic value of ratio of IC40 values", "setting": "[14]", "result": "−0.02"}, {"measurement": "logarithmic value of ratio of IC40 values", "setting": "[15]", "result": 0.07}, {"measurement": "logarithmic value of ratio of IC40 values", "setting": "[16]", "result": 0.08}, {"measurement": "logarithmic value of ratio of IC40 values", "setting": "[17]", "result": 0.08}, {"measurement": "logarithmic value of ratio of IC40 values", "setting": "[18]", "result": 0.00}, {"measurement": "logarithmic value of ratio of IC40 values", "setting": "[19]", "result": 0.11}]}, {"smiles": "C[C@@H]1O[C@@H](O[C@H]2C[C@@H](O)[C@]3(CO)[C@H]4[C@H](O)C[C@]5(C)[C@@H](C6=CC(=O)OC6)CC[C@]5(O)[C@@H]4CC[C@]3(O)C2)[C@H](O)[C@H](O)[C@H]1O", "note": "[Ouabain, ouabain]", "values": [{"measurement": "logarithmic value of ratio of IC40 values", "setting": "[1]", "result": 0.32}, {"measurement": "logarithmic value of ratio of IC40 values", "setting": "[2]", "result": 0.18}, {"measurement": "logarithmic value of ratio of IC40 values", "setting": "[3]", "result": 0.16}, {"measurement": "logarithmic value of ratio of IC40 values", "setting": "[4]", "result": 0.63}, {"measurement": "logarithmic value of ratio of IC40 values", "setting": "[5]; [20]", "result": 0.40}, {"measurement": "logarithmic value of ratio of IC40 values", "setting": "[5]; [21]", "result": 0.00}, {"measurement": "logarithmic value of ratio of IC40 values", "setting": "[6]", "result": 0.28}, {"measurement": "logarithmic value of ratio of IC40 values", "setting": "[7]", "result": 0.74}, {"measurement": "logarithmic value of ratio of IC40 values", "setting": "[8]", "result": 0.65}, {"measurement": "logarithmic value of ratio of IC40 values", "setting": "[9]", "result": 0.19}, {"measurement": "logarithmic value of ratio of IC40 values", "setting": "[10]", "result": 0.04}, {"measurement": "logarithmic value of ratio of IC40 values", "setting": "[11]; [22]", "result": "−0.15"}, {"measurement": "logarithmic value of ratio of IC40 values", "setting": "[11]; [23]", "result": "−0.12"}, {"measurement": "logarithmic value of ratio of IC40 values", "setting": "[12]", "result": "−0.08"}, {"measurement": "logarithmic value of ratio of IC40 values", "setting": "[13]", "result": 0.41}, {"measurement": "logarithmic value of ratio of IC40 values", "setting": "[14]", "result": 0.00}, {"measurement": "logarithmic value of ratio of IC40 values", "setting": "[15]", "result": 0.92}, {"measurement": "logarithmic value of ratio of IC40 values", "setting": "[16]", "result": "−0.23"}, {"measurement": "logarithmic value of ratio of IC40 values", "setting": "[17]", "result": "−0.08"}, {"measurement": "logarithmic value of ratio of IC40 values", "setting": "[18]", "result": 0.49}, {"measurement": "logarithmic value of ratio of IC40 values", "setting": "[19]", "result": 0.10}]}]}
